According to patent US9545105B2, “1-(heterocyclic carbonyl) piperidines” (BAYER INTELLECTUAL PROPERTY GMBH, priority 2010, dated 2017):

Tests used:
[1] = log P by HPLC on reversed-phase column (C 18), EEC Directive 79/831 Annex V.A8; assay type: physicochemical; settings: HPLC on reversed-phase column (C 18); 40° C.; 0.1% aqueous formic acid and acetonitrile; linear gradient 10% to 90% acetonitrile
Procedure, shortened: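 Compounds are eluted at 40° C using 0.1% aqueous formic acid and acetonitrile in a linear gradient from 10% to 90% acetonitrile. Unbranched alkan-2-ones bearing 3 to 16 carbons with known log P serve as calibrants. Each log P is interpolated linearly from retention times of the two bracketing alkanones.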

[2] = tested on: Septoria tritici; assay: In vivo preventive test on Septoria tritici (wheat); settings: 500 ppm of active ingredient, evaluated 21 days after inoculation
Method: (§1) Solvent: 49 parts by weight of N,N-dimethylacetamide Emulsifier: 1 part by weight of alkylaryl polyglycol ether To produce a suitable preparation of active compound, 1 part by weight of active compound or active compound combination is mixed with the stated amounts of solvent and emulsifier, and the concentrate is diluted with water to the desired concentration. To test for preventive activity, young plants are sprayed with the preparation of active compound or active compound combination at the stated rate of application. After the spray coating has been dried, the plants are sprayed with a spore suspension of Septoria tritici. The plants remain for 48 hours in an incubation cabinet at approximately 20° C. and a relative atmospheric humidity of approximately 100% and afterwards for 60 hours at approximately 15° C. in a translucent incubation cabinet at a relative atmospheric humidity of approximately 100%. The plants are placed in the greenhouse at a temperature of approximately 15° C. and a relative atmospheric humidity of approximately 80%. The test is evaluated 21 days after the inoculation. 0% means an efficacy which corresponds to that of the untreated control, while an efficacy of 100% means that no disease is observed.

[3] = tested on: Blumeria graminis f. sp. hordei; assay: In vivo preventive test on Blumeria graminis (barley); settings: 500 ppm of active ingredient, evaluated 7 days after inoculation
Method: Solvent: 49 parts by weight of N,N-dimethylacetamide Emulsifier: 1 part by weight of alkylaryl polyglycol ether To produce a suitable preparation of active compound, 1 part by weight of active compound or active compound combination is mixed with the stated amounts of solvent and emulsifier, and the concentrate is diluted with water to the desired concentration. To test for preventive activity, young plants are sprayed with the preparation of active compound or active compound combination at the stated rate of application. After the spray coating has been dried, the plants are dusted with spores of Blumeria graminis f. sp. hordei. The plants are placed in the greenhouse at a temperature of approximately 18° C. and a relative atmospheric humidity of approximately 80% to promote the development of mildew pustules. The test is evaluated 7 days after the inoculation. 0% means an efficacy which corresponds to that of the untreated control, while an efficacy of 100% means that no disease is observed.

[4] = tested on: Venturia inaequalis; assay: In vivo preventive test on Venturia inaequalis (apple scab); settings: 100 ppm of active ingredient, evaluated 10 days after inoculation
Method: (§2) Solvent: 24.5 parts by weight of acetone • 24.5 parts by weight of N,N-dimethylacetamide Emulsifier: 1 part by weight of alkylaryl polyglycol ether To produce a suitable preparation of active compound, 1 part by weight of active compound is mixed with the stated amounts of solvent and emulsifier, and the concentrate is diluted with water to the desired concentration. To test for preventive activity, young plants are sprayed with the preparation of active compound at the stated rate of application. After the spray coating has dried on, the plants are inoculated with an aqueous conidia suspension of the causal agent of apple scab (Venturia inaequalis) and then remain for 1 day in an incubation cabinet at approximately 20° C. and a relative atmospheric humidity of 100%. The plants are then placed in a greenhouse at approximately 21° C. and a relative atmospheric humidity of approximately 90%. The test is evaluated 10 days after the inoculation. 0% means an efficacy which corresponds to that of the untreated control, while an efficacy of 100% means that no disease is observed.

[5] = tested on: Puccinia triticina; assay: In vivo preventive test on Puccinia triticina (wheat); settings: 500 ppm of active ingredient, evaluated 8 days after inoculation
Method: as §1, with “Puccinia triticina.” for “Septoria tritici.”, “approximately” for “approximately 100% and afterwards for 60 hours at approximately 15° C. in a translucent incubation cabinet at a relative atmospheric humidity of approximately”, “20°” for “15°”, “8” for “21”

[6] = tested on: Pyrenophora teres; assay: In vivo preventive test on Pyrenophora teres (barley); settings: 500 ppm of active ingredient, evaluated 7-9 days after inoculation
Procedure, shortened: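 Young barley plants sprayed with compound in DMF/alkylaryl polyglycol ether emulsion; inoculated with P. teres spores one day later. 48 h at 22 °C, 100% humidity, then greenhouse ~20 °C, ~80% humidity; efficacy scored 7-9 days post-inoculation, 0% = untreated, 100% = no disease.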

[7] = tested on: Fusarium nivale (var. majus); assay: In vivo preventive test on Fusarium nivale (wheat); settings: 500 ppm of active ingredient, evaluated 5 days after inoculation
Method: Solvent: 49 parts by weight of N,N-dimethylacetamide Emulsifier: 1 part by weight of alkylaryl polyglycol ether To produce a suitable preparation of active compound, 1 part by weight of active compound or active compound combination is mixed with the stated amounts of solvent and emulsifier, and the concentrate is diluted with water to the desired concentration. To test for preventive activity, young plants are sprayed with the preparation of active compound or active compound combination at the stated rate of application. After the spray coating has been dried, the plants are slightly injured by using a sandblast and afterwards they are sprayed with a conidia suspension of Fusarium nivale (var. majus). The plants are placed in the greenhouse under a translucent incubation cabinet at a temperature of approximately 10° C. and a relative atmospheric humidity of approximately 100%. The test is evaluated 5 days after the inoculation. 0% means an efficacy which corresponds to that of the untreated control, while an efficacy of 100% means that no disease is observed.

[8] = tested on: Sphaerotheca fuliginea; assay: In vivo preventive test on Sphaerotheca fuliginea (cucumber); settings: 500 ppm of active ingredient, evaluated 7 days after inoculation
Method: Solvent: 49 parts by weight of N,N-dimethylformamide Emulsifier: 1 part by weight of Alkylarylpolyglycolether To produce a suitable preparation of active compound, 1 part by weight of active compound is mixed with the stated amounts of solvent and emulsifier, and the concentrate is diluted with water to the desired concentration. To test for preventive activity, young plants are sprayed with the preparation of active compound at the stated rate of application. One day after this treatment, the plants are inoculated with an aqueous spore suspension of Sphaerotheca fuliginea. Then the plants are placed in a greenhouse at approximately 23° C. and a relative atmospheric humidity of approximately 70%. The test is evaluated 7 days after the inoculation. 0% means an efficacy which corresponds to that of the untreated control, while an efficacy of 100% means that no disease is observed.

[9] = tested on: Leptosphaeria nodorum; assay: In vivo preventive test on Leptosphaeria nodorum (wheat); settings: 500 ppm of active ingredient, evaluated 8 days after inoculation
Method: as §1, with “Leptosphaeria nodorum.” for “Septoria tritici.”, “approximately” for “approximately 100% and afterwards for 60 hours at approximately 15° C. in a translucent incubation cabinet at a relative atmospheric humidity of approximately”, “22°” for “15°”, “8” for “21”

[10] = tested on: Alternaria solani; assay: In vivo preventive test on Alternaria solani (tomato); settings: 500 ppm of active ingredient, evaluated 7 days after inoculation
Procedure, shortened: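 Young tomato plants were sprayed preventively with compound in DMF/alkylarylpolyglycolether diluted in water, then inoculated one day later with A. solani spores. Incubation was 1 day at about 22 °C and 100% RH, then about 20 °C and 96% RH. Efficacy was scored 7 days after inoculation (0% = untreated control, 100% = no disease).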

[11] = tested on: Uromyces appendiculatus; assay: In vivo preventive test on Uromyces appendiculatus (bean rust); settings: 100 ppm of active ingredient, evaluated 10 days after inoculation
Method: as §2, with “spore” for “conidia”, “bean rust (Uromyces appendiculatus)” for “apple scab (Venturia inaequalis)”

[12] = tested on: Phakopsora pachyrhizi; assay: In vivo protective test on Phakopsora pachyrhizi (soybeans); settings: 250 ppm of active ingredient, evaluated 11 days after inoculation

Row | SMILES | logP [1] | Efficacy [2] [%] | Efficacy [3] [%] | Efficacy [4] [%] | Efficacy [5] [%] | Efficacy [6] [%] | Efficacy [7] [%] | Efficacy [8] [%] | Efficacy [9] [%] | Efficacy [10] [%] | Efficacy [11] [%] | Efficacy [12] [%]
1 | Cc1cc(C)cc(C2CCCCN2C(=O)c2c(C(F)F)nn(C)c2F)c1 (stereo not shown) [Example 30] | 3.71 | 100 | 100 | 100 | 100 | 100 | 100 | 100 | 90 |  |  | 
2 | Cc1cc(C(=O)N2CCCCC2c2ccc(Cl)cc2)c(C)o1 (stereo not shown) [Example 53] | 4.04 | 90 | 70 |  | 71 | 95 | 100 |  | 78 | 90 |  | 
3 | CCc1nn(C)c(F)c1C(=O)N1CCCCC1c1cc(OC)cc(OC)c1 (stereo not shown) [Example 67] | 2.84 |  |  | 100 |  | 90 |  |  |  | 95 | 95 | 90
4 | Cc1nn(C)c(F)c1C(=O)N1CCCCC1c1cccc(Br)c1 (stereo not shown) [Example 95] | 3.06 | 100 | 100 |  | 71 | 95 | 100 | 91 | 89 | 100 |  | 
5 | CCC(c1ccccc1Cl)C1CCCCN1C(=O)c1c(C(F)F)nn(C)c1F (stereo not shown) [Example 162] | 4.13 | 100 | 94 |  | 100 | 100 |  | 100 | 90 | 100 |  | 
